# Results from patent publication US20190008797A1, “ESTROGEN RECEPTOR ALPHA COLIGANDS, AND METHODS OF USE THEREOF” (priority 2016, published 2019).
# “Also recorded” adds a separate entry of the source. Like-named read-outs stand apart in the source and are kept apart here.
# Legend:
# [1] = tested on: mouse uterus; assay: Ovariectomized (OVX) mouse model, osmotic pump; assay type: in vivo; settings: OVX mice
# Description: (§1) 8 week old C57b1/6J female ovariectomized or intact mice were purchased from Jackson Laboratories, Sacramento, Calif. Mice were housed and maintained according to OLAC standard procedures in the NAF facility at UC Berkeley, Calif. All mice were fed a soy-free chow diet 2916.15 (Harlan Laboratories, Livermore, Calif.) starting one week before osmotic pump implantation or 2′, 3′, 4′-THC injection. Pumps Model 2006 were purchased from Alzet and filled with vehicle, 1 μg […], 2 mg of 2′, 3′, 4′-THC or the combination of 2′, 3′, 4′-THC and estradiol. All drugs were dissolved in sterile vehicle consisting of 50% dimethylsulfoxide (DMSO), 25% ETOH and 25% deionized water. Pumps were handled with sterile gloves and filled using a 27 gauge filling tube and 1 mL syringe. All pumps were placed in 1X PBS in 15 mL sterile conical tubes and incubated overnight at 37° . Pumps were surgically implanted into 8 week old C57b1/6J female ovariectomized mice (Jackson Laboratory, Sacramento, Calif.) posterior to the scapula and left for a duration of 4 weeks. Intact mice were injected intraperitoneal with 2′, 3′, 4′-THC every day for 3 weeks. Mice were weighed once a week for the duration of the experiment. The intraperitoneal gonadal fat was removed and weighed. Uterine tissue was collected, fluid drained and then weighed.
# Tissues were dissected and immediately frozen in liquid nitrogen. Before RNA isolation, tissues were homogenized in PureZOL™ using the MP FastPrep™-24 for 40 seconds.
# Uterine Tissue Slide Preparation Uterine tissue was removed and trimmed of excess adipose tissue. Tissues were fixed in formalin for 24 hours then transferred to 50% ETOH for 1 hour followed by 70% ethanol (ETOH) for another hour. After fixation tissues were sent to Histopathology Reference Laboratory, Hercules Calif. where they were paraffin embedded, sectioned and stained with hematoxylin and eosin for morphological exam
# FIGS. 5a-5h. 2′, 3′, 4′-THC acts as antagonist in the mouse uterus. Uterine weights of intact (FIG. 5a) and OVX (FIG. 5b) mice. […] (FIG. 5h) Total body weight of OVX mice after 4 week treatment. Error bars are ±SEM.
# [2] = tested on: NKG2E promoter; assay: ChIP of ERα and SRC-2 at the NKG2E promoter in U2OS-ERα cells; assay type: cell-based, human; settings: 2′,3′,4′-THC/E2 combination, 2 hr
# Description: Cells were fixed with 11X formaldehyde solution for 10 minutes at 37° C. and the reaction was quenched for 2 minutes with 1.25M glycine solution as previously described (Cvoro, A., et al. Distinct Roles of Unliganded and Liganded Estrogen Receptors in Transcriptional Repression. Mol Cell 21, 555-564 (2006)). Cells were washed and collected in collecting buffer (100 mM Tris-HCl pH 9.4 and 10 mM dithiothreitol (DTT)) supplemented with a protease inhibitor cocktail. Pellets were frozen overnight at −80° C. then were thawed on ice and lysed (50 mM Tris pH 7.4, 150 mM NaCl, 10 mM ethylenediaminetetraacetic acid (EDTA), 0.5 mM ethylene glycol tetraacetic acid (EGTA), 0.5% Triton™ X-100 and 1X protease inhibitor cocktail). Cell lysates were centrifuged and cell pellet was resuspended in RIPA buffer. Samples were sonicated and supernatant was collected. Approximately 5% of each sample was taken for input and stored at 4° C. Immune complexes were collected using magnetic sepharose beads (GE Healthcare, Pittsburgh, Pa.) equilibrated in radioimmunoprecipitation assay (RIPA) buffer. Complexes were collected over a period of 3 to 4 hours rotating at 4° C. […]
# FIGS. 2a-2f2′, 3′, 4′-THC behaves as a unique coagonist on gene expression in U2OS-ERα cells. […] Expression was assessed by up regulation or down regulation of 3-fold or more and a P-value≤0.05. […]
# [3] = tested on: MCF-7 cells; assay: MCF-7 cell proliferation (cell counting); settings: 5 days
# [4] = tested on: U2OS-ERα cells; assay: Real-time PCR of unique genes FGR, KCNK6, KRT73 in U2OS-ERα cells; assay type: cell-based, human; settings: E2 in combination with 5 μM 2′,3′,4′-THC, 24 hrs
# Description: Expression was assessed by up regulation or down regulation of 3-fold or more and a P-value≤0.05. […] Error bars are ±SEM.
# (FIGS. 6a, 6b) Gene expression of (FIG. 6a) KRT73 and (FIG. 6b) NKG2E in U2OS-ERα cells treated with 10 nM estradiol, 5 μM 2′, 3′, 4′-THC, 1μM ICI alone or in combination for 24 hours. […] Error bars are ±SEM. […] After transfection, luciferase activities were measured as described in the Methods. RLU is relative light units and the data shown are mean ±SEM. (FIG. 6c). […] After transfection, luciferase activities were measured as described in the Methods. RLU is relative light units and the data shown are mean ±SEM (FIG. 6d).
# [5] = tested on: mouse uterus; assay: Uterine weight in intact female mice; assay type: in vivo; settings: intact C57BL/6 female mice, daily intraperitoneal injection
# Description: as §1
# FIGS. 5a-5h. 2′, 3′, 4′-THC acts as antagonist in the mouse uterus. […]
# [6] = tested on: MCF-7 cells; assay: Flow cytometry of cellular DNA content in MCF-7 cells; assay type: cell-based, human; settings: for IC50: Homo sapiens, MCF7, 24 h
# Description: The cells were then washed with PBS, detached with trypsin and collected by centrifugation. The cell pellets were washed with cold PBS followed by centrifuge at room temperature and re-suspended in 500 μl PBS containing […] propidium iodide, 0.1% of Triton™ X-100, 0.1% of sodium citrate, and 10 μg/ml of RNase. Samples were then run on Cytomics™ FC-500 (Beckman Coulter) in the cell cytometry facility at UC Berkeley and data was analyzed using FlowJo 7.6.5.
smiles,measurement,setting,value
"O=C(/C=C/c1ccccc1)c1ccc(O)c(O)c1O [2′, 3′, 4′-THC, 2′, 3′, 4′-trihydroxychalcone]","H & E staining of uterus, effect on E2 response","[1]; combination with E2, 4 weeks",inhibited the proliferative response
same,effect on E2-induced increase in uterine weight,"[1]; combination with E2, 4 weeks",blocked
same,effect on E2-induced increased uterine mRNA for LCN2,"[1]; combination with E2, 4 weeks",antagonist effect
same,effect on E2-induced increased uterine mRNA for LTF,"[1]; combination with E2, 4 weeks",antagonist effect
same,effect on E2-induced increased uterine mRNA for SA100A9,"[1]; combination with E2, 4 weeks",antagonist effect
same,effect on E2 decrease of gonadal adipose tissue fat,"[1]; combination with E2, 4 weeks",not blocked
same,"uterine size / uterine weight, compound alone","[1]; osmotic pump, 4 weeks",did not increase
same,recruitment of ERα to the NKG2E promoter,[2],increased recruitment
same,recruitment of SRC-2 to the NKG2E promoter,[2],increased recruitment
same,effect on proliferation induced by E2,"[3]; 1, 5 and 10 μM, dose-dependent",blocked
same,"MCF-7 cell proliferation, compound alone",[3],no effect
same,E2 dose at which FGR expression was induced,[4],0.1 nM
same,E2 dose at which KCNK6 expression was induced,[4],1 nM
same,E2 dose at which KRT73 expression was induced,[4],1 nM
same,reduction of uterine growth compared to the control mice,[5],50%
same,effect on E2-treated cells by DNA content / cell cycle,[6]; 24 hours,anti-proliferative action; also recorded: G1 cell cycle arrest
same,IC50,"[6]; read-out: IC50 for inhibition, G1 phase (cellular DNA content)",2.9 µM
same,IC50,"[6]; read-out: IC50 for inhibition, S-phase (cellular DNA content)",2.6 µM
